US20040115331A1, “Ximenynic acid compositions, methods for their production and uses thereof” (priority 2002, published 2004)

Tested on: enteroendocrine L-cells
Experiment: Secretion of satiety inducing peptides (CCK-8, GLP-1) by enteroendocrine L-cells, radio immuno assay
Type: cell-based
Conditions: L-cells incubated 2 h at 37° C in KRB buffer; compared with equal amounts of palmitic acid
Method: To estimate the effects of ximenynic acid on satiety we measure the excretion of satiety inducing peptides (CCK-8 and GLP-1 L) by enteroendocrine L-cells. Two days prior to experiment 1*10^6 are cultured in 12-well culture plates. On the day of the experiment supernatants are replaced by Krebs-Ringer bicarbonate (KRB) buffer containing either control or test substances. Prior to the addition the solutions are adjusted to pH 7.2. Cells are incubated for 2 h at 37° C. Following incubation, supernatants are collected and measured by radio immuno assay for the amount of CCK-8 or GLP-1 which has been secreted.

CCCCCC/C=C/C#CCCCCCCCC(=O)O [ximenynic acid, octadeca-trans-11-en-9-ynoic acid]
release of CCK-8: significantly greater release
release of GLP-1: significantly greater release
